Experimental findings from PubChem BioAssay (NCI) are described below.

The structures appear in SMILES notation.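 Five compound concentrations were applied to cells in 96-well plates for 48 hours; endpoints were derived by simple linear interpolation of the resulting dose-response curve. At the GI50, growth is halved. TGI: total growth inhibition.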 A value given as a limit tells only on which side of the number the result lay.

One assay has as its system SK-OV-3 ovarian. Nature of the assay: inhibition of tumour cell growth, NCI panel, 48 h.
Consider `CC1CCc2sc3nc4n(c(=O)c3c2C1)CC(C)S4` (centres undefined), for which the TGI is 96.3 µM.
For `Cc1cccc(NS(=O)(=O)c2ccc(N=Nc3c(O)c(C(=O)O)cc4ccccc34)cc2)n1`, the TGI is greater than 100 µM.
Same read-out and setting: the value for `C#CCOCC12C=CC(O1)C1COC(=O)C12` (centres undefined) was greater than 100 µM; that for `CCOc1snc(C(Cl)(Cl)Cl)c1Cl` was greater than 100 µM.

A further assay deals with HL-60(TB) leukemia. The assay can be described thus: inhibition of tumour cell growth, NCI panel, 48 h.
As to `O=CN1CCN(C(=O)c2ccco2)C1=S`, the TGI was 8.94 µM.
Regarding `O=C1/C(=C/c2ccc(Cl)cc2)CCCc2ccc(F)cc21`, the GI50 is 17.2 µM and the TGI is greater than 100 µM.
`CC(=O)C1(O)CCC2(O)C3(O)CC=C4CC(O)CCC4(C)C3CC(OC(=O)c3ccc(O)cc3)C12C` (centres undefined): the TGI was greater than 100 µM.
As to `COCC#C[C@@]1(O)CCCCC1CC(OC)OC` (some centres undefined), the TGI is greater than 100 µM.
Same read-out and setting: the value for `C=C1CC(COc2ccc3c(C)c(C)c(=O)oc3c2C)(c2ccccc2)OC1=O` (centres undefined) was 5.54 µM; that for `CC(=O)OCC(=O)O[C@@H]1[C@H]2[C@@H](OC(=O)c3ccccc3)[C@@H](C)C[C@]2(O)[C@H](OC(C)=O)[C@@]2(C)C[C@]1(OC(C)=O)C[C@H]1C(=O)C(C)(C)[C@@H](OC(C)=O)[C@@H]12` was greater than 25 µM; that for `O=C(Sc1c(-c2ccccc2)c(=O)n(-c2ccccc2)c(=S)n1-c1ccccc1)c1ccco1` was 59.2 µM.
`O=c1ccn(-c2ccccn2)c(=O)n1-c1ccccn1` showed a TGI greater than 100 µM.
Take `CCC(=O)Nc1ccc(NS(=O)(=O)c2ccc(Cl)cc2)cc1`: the TGI is greater than 100 µM.
The molecule `COc1ccc(C2=C(Cl)C(=O)O/C2=C\c2ccc(OC)c(Br)c2)cc1Cl` returned a TGI greater than 100 µM.
Molecule `CCCCCCCCCCCCNC(=O)CCC(NC(=O)c1ccc(N(C)Cc2cnc3nc(N)nc(N)c3n2)cc1)C(=O)NCCCCCCCCCCCC` (centres undefined) displayed a TGI of 87.1 µM.
Take `CCN(CCCCCCCCCCN1CC(=O)N(CCCCCCCCCCN(CC)Cc2ccccc2OC)CC1=O)Cc1ccccc1OC`: the GI50 is 1.02 µM and the TGI was found to be 3.6 µM.
The molecule `Cc1cccc(NS(=O)(=O)c2ccc(N=Nc3c(O)c(C(=O)O)cc4ccccc34)cc2)n1` yielded a TGI greater than 100 µM.
On to `C#CCOCC12C=CC(O1)C1COC(=O)C12` (centres undefined), for which the TGI was greater than 100 µM.
`CCOc1snc(C(Cl)(Cl)Cl)c1Cl` came in with a TGI of 37.7 µM.

For another assay, the system named is SK-MEL-2 melanoma. Nature of the assay: inhibition of tumour cell growth, NCI panel, 48 h.
With `O=CN1CCN(C(=O)c2ccco2)C1=S`, the TGI is 40.6 µM.
Molecule `CC(=O)C1(O)CCC2(O)C3(O)CC=C4CC(O)CCC4(C)C3CC(OC(=O)c3ccc(O)cc3)C12C` (centres undefined) returned a TGI greater than 100 µM.
With `COCC#C[C@@]1(O)CCCCC1CC(OC)OC` (some centres undefined), the TGI was greater than 100 µM.
The molecule `C=C1CC(COc2ccc3c(C)c(C)c(=O)oc3c2C)(c2ccccc2)OC1=O` (centres undefined) had a TGI of 3.91 µM.
Consider `CC(=O)OCC(=O)O[C@@H]1[C@H]2[C@@H](OC(=O)c3ccccc3)[C@@H](C)C[C@]2(O)[C@H](OC(C)=O)[C@@]2(C)C[C@]1(OC(C)=O)C[C@H]1C(=O)C(C)(C)[C@@H](OC(C)=O)[C@@H]12`, for which the TGI is greater than 25 µM.
The same measure, in the same setting: the value for `O=C(Sc1c(-c2ccccc2)c(=O)n(-c2ccccc2)c(=S)n1-c1ccccc1)c1ccco1` was greater than 100 µM.
As for `O=c1ccn(-c2ccccn2)c(=O)n1-c1ccccn1`, the TGI was greater than 100 µM.
As for `CCC(=O)Nc1ccc(NS(=O)(=O)c2ccc(Cl)cc2)cc1`, the TGI was greater than 100 µM.
On the same count and under the same terms, the value for `S=c1[nH]nc(Cn2c3ccc(Br)cc3c3nc4ccccc4nc32)n1C1CCCCC1` was 54.6 µM.
Turning to `COc1ccc2c(c1)-c1c(c3cc(OC)ccc3n1CCN(C)C)CC2`, the TGI was determined as 29 µM.
Same read-out and setting: for `Oc1c(OCc2nnc(CCCCCCCCc3nnc(COc4ccc5ccccc5c4O)o3)o2)ccc2ccccc12` the value was greater than 100 µM.
Same read-out and setting: the value for `COc1ccc(C2=C(Cl)C(=O)O/C2=C\c2ccc(OC)c(Br)c2)cc1Cl` was 60.2 µM; that for `CCCCCCCCCCCCNC(=O)CCC(NC(=O)c1ccc(N(C)Cc2cnc3nc(N)nc(N)c3n2)cc1)C(=O)NCCCCCCCCCCCC` (centres undefined) was greater than 100 µM; that for `CC1CCc2sc3nc4n(c(=O)c3c2C1)CC(C)S4` (centres undefined) was 41.1 µM.
Still for that read-out and setting: for `Cc1cccc(NS(=O)(=O)c2ccc(N=Nc3c(O)c(C(=O)O)cc4ccccc34)cc2)n1` the value was greater than 100 µM.

The test system of another assay is OVCAR-5 ovarian. The assay can be described thus: inhibition of tumour cell growth, NCI panel, 48 h.
`O=CN1CCN(C(=O)c2ccco2)C1=S` gave a TGI of 37.7 µM.
Turning to `O=C1/C(=C/c2ccc(Cl)cc2)CCCc2ccc(F)cc21`, the GI50 was 32.4 µM and the TGI is greater than 100 µM.
The molecule `CC(=O)C1(O)CCC2(O)C3(O)CC=C4CC(O)CCC4(C)C3CC(OC(=O)c3ccc(O)cc3)C12C` (centres undefined) displayed a TGI greater than 100 µM.
For `COCC#C[C@@]1(O)CCCCC1CC(OC)OC` (some centres undefined), the TGI was greater than 100 µM.
Molecule `C=C1CC(COc2ccc3c(C)c(C)c(=O)oc3c2C)(c2ccccc2)OC1=O` (centres undefined) had a TGI of 25.1 µM.
`CC(=O)OCC(=O)O[C@@H]1[C@H]2[C@@H](OC(=O)c3ccccc3)[C@@H](C)C[C@]2(O)[C@H](OC(C)=O)[C@@]2(C)C[C@]1(OC(C)=O)C[C@H]1C(=O)C(C)(C)[C@@H](OC(C)=O)[C@@H]12` showed a TGI greater than 15.7 µM.
In turn, `O=C(Sc1c(-c2ccccc2)c(=O)n(-c2ccccc2)c(=S)n1-c1ccccc1)c1ccco1` returned a TGI greater than 100 µM.
Molecule `O=c1ccn(-c2ccccn2)c(=O)n1-c1ccccn1` returned a TGI greater than 100 µM.
Consider `CCC(=O)Nc1ccc(NS(=O)(=O)c2ccc(Cl)cc2)cc1`, for which the TGI is greater than 100 µM.
Regarding `S=c1[nH]nc(Cn2c3ccc(Br)cc3c3nc4ccccc4nc32)n1C1CCCCC1`, the TGI was greater than 100 µM.
Take `COc1ccc2c(c1)-c1c(c3cc(OC)ccc3n1CCN(C)C)CC2`: the TGI worked out at 29.9 µM.
Consider `Oc1c(OCc2nnc(CCCCCCCCc3nnc(COc4ccc5ccccc5c4O)o3)o2)ccc2ccccc12`, for which the TGI is greater than 100 µM.
